Values after ≈ are worked out from the molar mass of the structure shown.
What was measured:
Test in all cases: microbe, parasite or virus in culture
[1] = tested on: S. aureus JE2 (wild type); conditions: 22 h; for MIC: Staphylococcus aureus, read-out: MIC, WT
Excerpt: (§1) Staphylococcus aureus is intrinsically resistant to the clinically approved cationic antimicrobial peptides polymyxin B (PMB) and colistin ([1], [16]). […] The MIC for PMB was subsequently determined using Etests for the identified mutants.
(§2) The strains used in this study include S. aureus strain JE2 (plasmid-cured derivative of USA300 LAC) and all derivative strains within the Nebraska Transposon Mutant Library (NTML), consisting of 1,920 unique transposon mutants with inactivation of nonessential genes ([15]). The bursa aurealis transposon used to create the collection contains the resistance cassette ermB, which confers resistance to erythromycin ([15]). Additionally we used S. aureus SA113 and two derivatives, SA113 ΔdltA ([9]) and SA113 ΔmprF ([10]). All bacterial strains were cultured at 37°C in tryptic soy broth (TSB) or on tryptic soy agar (TSA), with antimicrobial agents added as indicated. Two methods have been employed to determine MICs to various antimicrobial agents. (i) A 2-fold broth microdilution assay in TSB (100 µl) with an initial inoculum of approximately 5 × 10^5 cells/ml was employed to determine the MICs of polymyxin B sulfate (Sigma), gallidermin (Santa Cruz Biotechnology), nisin (Sigma), bacitracin (Sigma), and LL-37 (Isca Biochemicals). […] The MIC was determined upon incubation at 37°C for 22 h. […]

[2] = tested on: S. aureus JE2 atpA transposon mutant (SAUSA300_2060)
Excerpt: as §1, §2

[3] = tested on: S. aureus JE2 graR transposon mutant (SAUSA300_0645)
Excerpt: as §1, §2

[4] = tested on: S. aureus JE2 vraF transposon mutant (SAUSA300_0647)
Excerpt: as §1, §2

[5] = tested on: S. aureus JE2 vraG transposon mutant (SAUSA300_0648)
Excerpt: as §1, §2

CN[C@H](CC(C)C)C(=O)N[C@H]1C(=O)N[C@@H](CC(N)=O)C(=O)N[C@H]2C(=O)N[C@H]3C(=O)N[C@H](C(=O)N[C@H](C(=O)O)c4cc(O)cc(O)c4-c4cc3ccc4O)[C@H](O)c3ccc(c(Cl)c3)Oc3cc2cc(c3O[C@@H]2O[C@H](CO)[C@@H](O)[C@H](O)[C@H]2O[C@H]2C[C@](C)(N)[C@H](O)[C@H](C)O2)Oc2ccc(cc2Cl)[C@H]1O [Vancomycin, vancomycin] was tested, and the “MIC, WT” value ([1]; conventional antibiotics (Table 3), Etest on TSA, 37°C, WT JE2) was 1.5 µg/mL (≈ 1.04 µM), the “MIC, atpA” value ([2]; conventional antibiotics (Table 3), Etest on TSA, 37°C, 22 h, atpA mutant) was 1.500 µg/mL (≈ 1.04 µM) and the “MIC, graR” value ([3]; conventional antibiotics (Table 3), Etest on TSA, 37°C, 22 h, graR mutant) was 1 µg/mL (≈ 0.69 µM). The “MIC, vraF” value ([4]; conventional antibiotics (Table 3), Etest on TSA, 37°C, 22 h, vraF mutant) was 0.75 µg/mL (≈ 0.518 µM) and the “MIC, vraG” value ([5]; conventional antibiotics (Table 3), Etest on TSA, 37°C, 22 h, vraG mutant) was 1 µg/mL (≈ 0.69 µM).
For CC(=O)NC[C@H]1CN(c2ccc(N3CCOCC3)c(F)c2)C(=O)O1 [Linezolid, linezolid], the MIC [1] was 2 µg/mL (≈ 5.93 µM).
With CNC(C)C1CCC(N)C(OC2C(N)CC(N)C(OC3OCC(C)(O)C(NC)C3O)C2O)O1 (stereo not shown) [Gentamicin, gentamicin] the MIC [1] was 1.5 µg/mL (≈ 3.14 µM), the MIC ([2]; Staphylococcus aureus, 22 h, read-out: MIC, atpA) was 0.094 µg/mL (≈ 0.197 µM) and the “fold reduction in MIC / increased sensitivity relative to WT” value ([2]; {}) was 16 fold. For the same compound, the MIC ([3]; Staphylococcus aureus, 22 h, read-out: MIC, graR) was 0.5 µg/mL (≈ 1.05 µM), the “fold reduction in MIC / increased sensitivity relative to WT” value ([3]; {}) was 3-6 fold and the MIC ([4]; Staphylococcus aureus, 22 h, read-out: MIC, vraF) was 0.38 µg/mL (≈ 0.796 µM). For the same compound, the “fold reduction in MIC / increased sensitivity relative to WT” value ([4]; {}) was 3-6 fold, the MIC ([5]; Staphylococcus aureus, 22 h, read-out: MIC, vraG) was 0.25 µg/mL (≈ 0.523 µM) and the “fold reduction in MIC / increased sensitivity relative to WT” value ([5]; {}) was 3-6 fold.
In the case of Cc1onc(-c2ccccc2)c1C(=O)N[C@@H]1C(=O)N2[C@@H]1SC(C)(C)[C@@H]2C(=O)O [Oxacillin, oxacillin], the MIC [1] is reported as 0.5 µg/mL (≈ 1.25 µM).

From article PMC5587909, “Inhibition of the ATP Synthase Eliminates the Intrinsic Resistance of Staphylococcus aureus towards Polymyxins” (mBio, 2017)
